# Values joined by “and” are separate entries in the source; they are usually repeats but may differ in a detail not shown here. Identical values can stand only once.
# Test system: Calu-3 cells
# Test: Cellular tolerability test: TEER of Calu-3 monolayers
# Type: cell-based, human
# Conditions: for TEER after 2 hours Mean [%]: in KRB; for effect on vitality of Calu-3 cells (in words): summary of Table 1
# From the text: In addition to the physicochemical properties of drug formulations and their stability, either as solution or dispersed systems, it is helpful to investigate the cellular tolerability of such drug formulations in a cell culture test system. For this purpose the bronchial cell line Calu-3 was used as an in vitro model for toxicity assessment. Calu-3 represents a human submucosal adenocarcinoma cell line that forms tight, polarized and well differentiated monolayers with apical microvilli and tight junctional complexes. In contrast to other cell lines, Calu-3 cells generate extracellular mucus. […] In addition, it has been shown that loss of monolayer integrity is paralleled by a decrease in TEER to values below 600Ω·cm^2 and an increase in permeability. […] Since toxicity is paralleled by a loss of the monolayer integrity, a decrease in TEER of more than 50% is indicative for the toxicity of a test compound. […] The Calu-3 cell tests offer the possibility to investigate potential effects of the drug substance as well as the influence of excipients or formulation constituents.
# TEER was determined in physiological Krebs Ringer buffer (KRB) for two hours after the application of the different formulations or excipients. A decrease of the measured resistance indicated an affection of intact epithelial cell-cell contacts (tight junctions), which is an extremely sensitive parameter to determine toxic effects. To assess whether such cell damage was reversible, the cells were incubated for 24 h in cell culture subsequently to the incubation with the test formulations.
# [1] = conc. (undiluted), after 24 h in cell culture following incubation
# [2] = conc. (undiluted; stock concentration given with each formulation name)
# [3] = dilution 1:5, after 24 h in cell culture following incubation
# [4] = dilution 1:10, after 24 h in cell culture following incubation
Compound,TEER after 24 hours Mean [%] [1],TEER after 2 hours Mean [%] [2],TEER after 24 hours Mean [%] [3],TEER after 2 hours Mean [%] (dilution 1:5),TEER after 24 hours Mean [%] [4],TEER after 2 hours Mean [%] (dilution 1:10),effect on vitality of Calu-3 cells (in words),"TEER after 24 hours Mean [%] (positive control, 0.1% w/v in KRB, passages p44U, p45U, p46U, p47U)"
Vitamin E TPGS,50%,47%,49%,48%,51%,47%,–,–
O=C(O)CC(O)(CC(=O)O)C(=O)O [Citric acid],53%,105%,44%,40%,–,–,–,–
"NC[C@H]1O[C@H](O[C@H]2[C@H](O)[C@@H](O[C@H]3O[C@H](CO)[C@@H](O)[C@H](N)[C@H]3O)[C@H](N)C[C@@H]2N)[C@H](N)C[C@@H]1O [Tobramycin (T100), Tobramycin, reference compound]",46%,94%,79%,123%,–,–,No damaging effect,–
"C[C@@H]1[C@H](O)[C@@H](C)/C=C/C=C/C=C/C=C/C=C/C=C/C=C/[C@H](O[C@@H]2O[C@H](C)[C@@H](O)[C@H](N)[C@@H]2O)C[C@@H]2O[C@](O)(C[C@@H](O)C[C@@H](O)[C@H](O)CC[C@@H](O)C[C@@H](O)CC(=O)O[C@H]1C)C[C@H](O)[C@H]2C(=O)O [Amphotericin B, reference compound]",67%,108%,64%,80%,–,–,No damaging effect,–
O=C1O[C@H]([C@@H](O)CO)C([O-])=C1O.[Na+] [Sodium Ascorbate],70%,22%,66%,70%,51%,57%,–,–
Captisol,58%,114%,56%,98%,66%,83%,–,–
2-hydroxypropyl-β-cyclodextrin [Example 2-HP-β-CD],45%,59%,77%,86%,73%,90%,–,–
"OC[C@H]1O[C@@H]2O[C@H]3[C@H](O)[C@@H](O)[C@@H](O[C@H]4[C@H](O)[C@@H](O)[C@@H](O[C@H]5[C@H](O)[C@@H](O)[C@@H](O[C@H]6[C@H](O)[C@@H](O)[C@@H](O[C@H]7[C@H](O)[C@@H](O)[C@@H](O[C@H]8[C@H](O)[C@@H](O)[C@@H](O[C@H]9[C@H](O)[C@@H](O)[C@@H](O[C@H]1[C@H](O)[C@H]2O)O[C@@H]9CO)O[C@@H]8CO)O[C@@H]7CO)O[C@@H]6CO)O[C@@H]5CO)O[C@@H]4CO)O[C@@H]3CO [Gamma-CD, γ-cyclodextrin]",41%,61%,46%,69%,44%,65%,–,–
"CCCCCCCCCCCCOS(=O)(=O)[O-].[Na+] [SDS, reference compound]",–,–,–,–,–,–,–,10% and 6% and 8%
O=C1NS(=O)(=O)c2ccccc21.[Na] [Saccharin-Natrium],43%,55%,50%,55%,–,–,–,–
